Results: PubChem BioAssay (NCI)
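These data come from cells grown in 96-well plates and exposed to compound for 48 hours at five concentrations. GI50 marks 50% less growth. TGI denotes the concentration required for complete inhibition of growth.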

Key:
Experiment in all cases: NCI tumour cell line growth inhibition, 48 h; in the data active = GI50 below about 0.43 µM; inactive = the rest
[1] = test system: 786-0 renal
[2] = test system: A498 renal
[3] = test system: A549 NSCLC
[4] = test system: ACHN renal
[5] = test system: CAKI-1 renal
[6] = test system: COLO 205 colon
[7] = test system: DLD-1 colon
[8] = test system: DMS 273 small cell lung
[9] = test system: EKVX NSCLC
[10] = test system: HCC-2998 colon
[11] = test system: HCT-116 colon
[12] = test system: HCT-15 colon
[13] = test system: HOP-18 NSCLC
[14] = test system: HOP-62 NSCLC
[15] = test system: HOP-92 NSCLC
[16] = test system: HT29 colon
[17] = test system: IGROV1 ovarian
[18] = test system: K-562 leukemia
[19] = test system: KM12 colon
[20] = test system: KM20L2 colon
[21] = test system: LXFL 529 NSCLC
[22] = test system: M14 melanoma
[23] = test system: M19-MEL melanoma
[24] = test system: MALME-3M melanoma
[25] = test system: MOLT-4 leukemia
[26] = test system: NCI-H226 lung
[27] = test system: NCI-H23 lung
[28] = test system: NCI-H460 lung
[29] = test system: NCI-H522 lung
[30] = test system: OVCAR-4 ovarian
[31] = test system: OVCAR-5 ovarian
[32] = test system: OVCAR-8 ovarian
[33] = test system: RPMI-8226 leukemia
[34] = test system: RXF 393 renal
[35] = test system: SF-268 CNS
[36] = test system: SF-295 CNS
[37] = test system: SF-539 CNS
[38] = test system: SK-MEL-2 melanoma
[39] = test system: SK-MEL-28 melanoma
[40] = test system: SK-MEL-5 melanoma
[41] = test system: SK-OV-3 ovarian
[42] = test system: SN12C renal
[43] = test system: SNB-19 CNS
[44] = test system: SNB-75 CNS
[45] = test system: SNB-78 CNS
[46] = test system: SR leukemia
[47] = test system: SW-620 colon
[48] = test system: TK-10 renal
[49] = test system: U251 CNS
[50] = test system: UACC-257 melanoma
[51] = test system: UACC-62 melanoma
[52] = test system: UO-31 renal
[53] = test system: CCRF-CEM leukemia
[54] = test system: DMS 114 small cell lung
[55] = test system: LOX IMVI melanoma
[56] = test system: OVCAR-3 ovarian
[57] = test system: HL-60(TB) leukemia

O=[N+]([O-])c1ccc(C2=NN(c3ccccc3)C[N+](c3ccc(Br)cc3)=N2)cc1
> 100 µM: TGI [1] | TGI [2] | TGI [3] | TGI [4] | TGI [5] | TGI [6] | TGI [7] | TGI [8] | TGI [9] | TGI [10] | TGI [11] | TGI [12] | TGI [13] | TGI [14] | TGI [15] | TGI [16] | TGI [17] | TGI [18] | TGI [19] | TGI [20] | TGI [21] | TGI [22] | TGI [23] | TGI [24] | TGI [25] | TGI [26] | TGI [27] | TGI [28] | TGI [29] | TGI [30] | TGI [31] | TGI [32] | TGI [33] | TGI [35] | TGI [36] | TGI [37] | TGI [38] | TGI [39] | TGI [40] | TGI [41] | TGI [42] | TGI [43] | TGI [44] | TGI [45] | TGI [46] | TGI [47] | TGI [48] | TGI [49] | TGI [50] | TGI [51] | TGI [52]
79.8 µM: TGI [34]

O=C1CN2C(Cl)(Cl)C2(c2ccccc2)c2cc(Cl)ccc2N1CC1CC1 (configuration not stated)
40.9 µM: TGI [50]
88.5 µM: TGI [20]
32 µM: TGI [24] | TGI [28]
33.4 µM: TGI [10] | TGI [38]
30.2 µM: TGI [19]
35.8 µM: TGI [11]
68.6 µM: TGI [46]
94.8 µM: TGI [44]
65.8 µM: TGI [4] | TGI [18]
81.8 µM: TGI [33]
31.6 µM: TGI [55]
51.7 µM: TGI [27]
44.9 µM: TGI [16]
44.2 µM: TGI [7]
32.9 µM: TGI [39]
85.8 µM: TGI [54]
47.1 µM: TGI [36]
33.8 µM: TGI [56]
54.8 µM: TGI [25]
26.2 µM: TGI [15]
48.9 µM: TGI [12]
89.1 µM: TGI [9]
63.2 µM: TGI [8]
41.6 µM: TGI [26]
93.8 µM: TGI [23]
38.8 µM: TGI [6]
29.8 µM: TGI [32]
61.4 µM: TGI [53]
> 100 µM: TGI [5] | TGI [21] | TGI [30] | TGI [31] | TGI [47] | TGI [48]
34.7 µM: TGI [49]
35.9 µM: TGI [34]
36.6 µM: TGI [22]
35.5 µM: TGI [42]
50.3 µM: TGI [14]
66.6 µM: TGI [52]
81.2 µM: TGI [13]
86.1 µM: TGI [35]
35.7 µM: TGI [40]
38.2 µM: TGI [29]

COc1ccc(C2[C@H]3C(=O)N(c4ccc(Cc5ccc(N6C(=O)[C@@H]7ON(c8ccccc8)C(c8ccc(OC)cc8)[C@@H]7C6=O)cc5)cc4)C(=O)[C@H]3ON2c2ccccc2)cc1 (some centres not stated)
84.7 µM: TGI [22]
> 100 µM: TGI [1] | TGI [2] | TGI [3] | TGI [4] | TGI [5] | TGI [53] | TGI [6] | TGI [7] | TGI [8] | TGI [9] | TGI [10] | TGI [11] | TGI [12] | TGI [57] | TGI [13] | TGI [14] | TGI [15] | TGI [16] | TGI [17] | TGI [18] | TGI [19] | TGI [20] | TGI [55] | TGI [21] | TGI [23] | TGI [24] | TGI [25] | TGI [26] | TGI [27] | TGI [28] | TGI [29] | TGI [56] | TGI [30] | TGI [31] | TGI [32] | TGI [33] | TGI [34] | TGI [35] | TGI [36] | TGI [37] | TGI [38] | TGI [39] | TGI [40] | TGI [41] | TGI [42] | TGI [43] | TGI [44] | TGI [45] | TGI [46] | TGI [47] | TGI [48] | TGI [49] | TGI [50] | TGI [51] | TGI [52]

Nc1cc(-c2ccccc2)nn1-c1nsc2ccccc12
62.3 µM: TGI [53]
56.9 µM: TGI [44]
61.7 µM: TGI [34]
> 100 µM: TGI [3] | TGI [4] | TGI [6] | TGI [54] | TGI [8] | TGI [9] | TGI [10] | TGI [11] | TGI [12] | TGI [57] | TGI [13] | TGI [14] | TGI [15] | TGI [16] | TGI [17] | TGI [18] | TGI [19] | TGI [20] | TGI [55] | TGI [21] | TGI [22] | TGI [23] | TGI [25] | TGI [27] | TGI [28] | TGI [56] | TGI [30] | TGI [31] | TGI [32] | TGI [33] | TGI [35] | TGI [37] | TGI [38] | TGI [39] | TGI [40] | TGI [42] | TGI [43] | TGI [45] | TGI [46] | TGI [47] | TGI [48] | TGI [49] | TGI [50] | TGI [51] | TGI [52]

NCCN.NCCN.[Cl-].[O]=[Os+2]=[O]
inactive: GI50 [1] > 100 µM | GI50 [3] > 100 µM | GI50 [5] > 100 µM | GI50 [6] > 100 µM | GI50 [7] > 100 µM | GI50 [54] > 100 µM | GI50 [9] > 100 µM | GI50 [10] > 100 µM | GI50 [11] > 100 µM | GI50 [12] > 100 µM | GI50 [13] > 100 µM | GI50 [17] > 100 µM | GI50 [20] > 100 µM | GI50 [21] > 100 µM | GI50 [22] > 100 µM | GI50 [23] 12 µM | GI50 [24] > 100 µM | GI50 [26] > 100 µM | GI50 [27] > 100 µM | GI50 [28] > 100 µM | GI50 [29] > 100 µM | GI50 [56] > 100 µM | GI50 [30] > 100 µM | GI50 [31] > 100 µM | GI50 [32] > 100 µM | GI50 [33] > 100 µM | GI50 [34] > 100 µM | GI50 [35] > 100 µM | GI50 [36] > 100 µM | GI50 [37] > 100 µM | GI50 [38] > 100 µM | GI50 [39] > 100 µM | GI50 [42] > 100 µM | GI50 [43] > 100 µM | GI50 [44] 71 µM | GI50 [45] > 100 µM | GI50 [46] 67.4 µM | GI50 [47] > 100 µM | GI50 [48] > 100 µM | GI50 [49] > 100 µM | GI50 [51] > 100 µM | GI50 [52] > 100 µM
> 100 µM: TGI [1] | TGI [3] | TGI [5] | TGI [6] | TGI [7] | TGI [54] | TGI [9] | TGI [10] | TGI [11] | TGI [12] | TGI [13] | TGI [17] | TGI [20] | TGI [21] | TGI [22] | TGI [24] | TGI [26] | TGI [27] | TGI [28] | TGI [29] | TGI [56] | TGI [30] | TGI [31] | TGI [32] | TGI [33] | TGI [34] | TGI [35] | TGI [36] | TGI [37] | TGI [38] | TGI [39] | TGI [42] | TGI [43] | TGI [44] | TGI [45] | TGI [46] | TGI [47] | TGI [48] | TGI [49] | TGI [51] | TGI [52]
28.8 µM: TGI [23]
